Experiment: Human HepG2 cell viability assay in 384 well format
Type: toxicity, cell-based
Design: dose 125 nL, time 70.5 hour; concentration not given beside the values
Details: HepG2 cells, read-out: Inhibition

SMILES | cytotoxicity at 70.5 h [%]
CCC(O)Cn1cc(C2=CCN(Cc3ccc(OC)cc3)CC2)cn1 (stereo not given) | -11.9
CCCc1cc(C(=O)NCCCn2nnc3ccccc32)no1 | -6.64
CCCc1nc(CN(CC)C(=O)c2ccc3ncsc3c2)no1 | -0.393
CN1CC2(CCN(C(=O)c3ccc4c(=O)n(C)cnc4c3)CC2)CC1=O | -6.3
O=C(CCCc1cn[nH]c1)N1C[C@@H](CN2CCCCCC2)[C@@H](CO)C1 | -6.07
COc1cc(OC)nc(N2CCC3(CC2)OCCCC3O)n1 (stereo not given) | -5.5
Cc1cnc(C(=O)N(C)Cc2nc(-c3ccccn3)no2)cn1 | 1.35
COCc1ncc(-c2nccn2CCS(C)(=O)=O)cn1 | 27.5
CN(C)C(=O)c1ccc2c(c1)N(C)C(CC(=O)NC(CO)CO)CO2 (stereo not given) | -7.74
Cc1cc2nc(C(C)C)cc(N(C)CC3CCN(C(C)C)C3)n2n1 (stereo not given) | 28
CCC(=O)Nc1cccc(OCC(=O)N[C@@H]2C[C@H]3CC[C@@H]2C3)c1 | -22.4
CC(C)Cc1cc(CNC(=O)c2cccc3c2NCCC3)no1 | -8.61
CC(C)C1CN(C(=O)c2cc(=O)[nH]c(=O)[nH]2)CCC(=O)N1CC1CC1 (stereo not given) | -2.3
CCCn1ccnc1-c1nccn1CCn1cnnc1 | -6.38
Cc1nc2c(c(NC(C)c3nnn[nH]3)n1)Cc1ccccc1OC2 (stereo not given) | -6.63
COCCCC1CCCCN1Cc1cnn(C)c1C1CC1 (stereo not given) | -2.6
O=C(Cc1ccc(CO)cc1)N1CCN(CC2CC2)[C@@H]2CS(=O)(=O)C[C@@H]21 | 2.89
CC(C)(C)N1CC(C(=O)NCc2noc(Cc3ccccc3)n2)CC1=O (stereo not given) | 21.2
CN1CCCC(CCC(=O)NCCCn2ncc3ccccc32)C1 (stereo not given) | 25.3
CCN(Cc1noc(C)n1)C(=O)C(c1ccccc1C)N(C)C (stereo not given) | -6.06
COC(=O)[C@]12CNC[C@H]1CN(Cc1nc(C)c[nH]1)C2 | 8.04
COc1cc(C(=O)N2CC(Oc3ccccc3Cl)C2)ccn1 | -3.47
O=C1CC[C@H]2CN(Cc3ncc[nH]3)CC[C@H]2N1CC1CCNCC1 | -1.94
CSc1ccc(CN(CCO)C(=O)CCNC(C)=O)cc1 | -14.7
Cc1nnc(N2CC[C@@]3(O)CCNC[C@H]3C2)c2ccccc12 | -12.3
Cc1nc2c(c(N(C)Cc3ccccc3-n3cccn3)n1)CCNCC2 | 26.5
CCn1cc(CN2CCCCC2CCn2ccnc2C)cc1C#N (stereo not given) | -6.87

SMILES | cytotoxicity at 70.5 h [%]
CCC(C(=O)N(C)Cc1cc(C2CC2)[nH]n1)n1cccn1 (stereo not given) | -5.95
COCCN(Cc1c(C)nn(C)c1C)C(=O)C1COc2ccccc2C1 (stereo not given) | -1.84
Cn1ncc2c(N3CC(N4CCCCC4)C3)nc(-c3ccncc3)nc21 | -12.9
CC(=O)CCC(=O)N1CCC2(CC1)N=C(CCC(C)C)NC2=O | -0.28
CN(CCc1nc2cc(Cl)ccc2[nH]1)C(=O)c1ncn[nH]1 | -9.76
CN(Cc1nccs1)C1CCN(c2cccc(-c3cscn3)c2)CC1 | 10.5
CC(C)c1cc(NCC2(CO)CCCC2)ncn1 | -10.6
Cc1ncsc1-c1ccn(CC(=O)Nc2cnn(C)n2)n1 | 45.6
CNC(=O)CCC(=O)N1CCOC(c2ccc3cc(OC)ccc3c2)C1 (stereo not given) | -3.11
N[C@@H]1CC[C@H](C(=O)NCCc2nc(-c3ccccc3)cs2)C1 | -1.72
Cc1nn(-c2ccccc2)c(C)c1-c1ccnc(N2CCCNCC2)n1 | -2.54
C1CC(CN2C[C@H]3CC[C@@H]2CN(Cc2nnc(C4CC4)o2)C3)C1 | -16.7
CCCN1CC2(CCN(c3cc(C4CC4)ncn3)CC2)CC1C(=O)O (stereo not given) | -4.45
CCn1ccnc1CN(C)Cc1nc(Cc2ccccc2F)no1 | 7.48
Cc1ncc(C(=O)N2CCC(N3C[C@@H](C)O[C@@H](C)C3)CC2)c(=O)[nH]1 | 8.83
CC[C@@]1(O)CCN(C(=O)c2ccoc2)C[C@H]1O | -7.14
Cn1ccnc1-c1nccn1C[C@@H]1CCCN2CCCC[C@H]12 | 2.02
CN1CCC(N(CCc2ccccc2)C(=O)COCC2CCCO2)CC1 (stereo not given) | -0.746
CN(C)CCNC(=O)c1ccc(OC2CCN(C(=O)CO)CC2)c(Cl)c1 | -7.98
O=C1NC(c2cccnc2)=NC12CCN(CCCc1ccccc1)CC2 | -8.89
COCCOCC(=O)N1CCC2(CCCN(C3CCOCC3)C2=O)C1 (stereo not given) | 11.4
Cn1ncc(N2CCC(CNC(=O)[C@@H](N)C3CCCCC3)CC2)cc1=O | 3.03
CCNc1ncc(CN2C[C@H]3CC[C@@H]2CN(C(=O)C2CCC2)C3)cn1 | -7.7
COc1cc2c(cc1C(=O)N1CC(c3ccncc3)C1)CCC2 | -5.23
Cc1cnn(CCNc2ncnc3c2CCN(CC2CCOC2)CC3)c1 (stereo not given) | -2.24
CCCN1CCCC2(CCN(Cc3noc(C4CCCC4)n3)C2)C1=O (stereo not given) | 3.33
Cc1cc(C)nc(CN2CCOC(c3ccc(Cl)cc3)C2)n1 (stereo not given) | -1.88

SMILES | cytotoxicity at 70.5 h [%]
O=C(NCc1cnn2ccccc12)NC1CCCC1 | -15.5
COc1cncc(-n2nc(C)c(CC(C)=O)c2C)c1 | 0.266
Cc1ccn2c(F)c(C(=O)N3CCC4(CCC(=O)N(C)C4)CC3)nc2c1 | -10.1
CCc1cc(C(=O)N2CC[C@@H](c3ccc4ccccc4c3)[C@H](O)C2)[nH]n1 | 35
CCc1cnc(C)nc1NC(CC)c1ncnn1CC (stereo not given) | -5.6
COc1ccc(C(=O)N2CCCCC2c2ccccn2)c(OC)n1 (stereo not given) | 15.4
O=C(NCCc1cccnc1)c1cn(CCN2CCNCC2)nn1 | -5.26
CCc1cnc(C)nc1NCCN1CCC(O)CC1 | 9.55
CCC(C(=O)NC(C)(C)C)n1cccc(OC)c1=O (stereo not given) | -10.3
CCn1cnc(NC(=O)N2CCC(c3ccc(F)cc3)C2)n1 (stereo not given) | -8.46
CCn1cc(CNc2ccc3nccnc3c2)cn1 | 7.17
Cn1ccnc1SCCNC1CCN(c2ncccn2)CC1 | -1.29
CCCOCC1CCN(C(=O)Cn2cccc(OC)c2=O)C1 (stereo not given) | -9.9
COc1ccc(F)c(CN2CC(=O)N(c3ccccc3C)CC2C)c1 (stereo not given) | -7.03
Cc1oc(-c2ccc(F)cc2F)nc1CN1C[C@@H](C)O[C@@H](C)C1 | 15.1
Cc1nn(C2CCCCC2)c2nc(C(C)(C)CN3CCOCC3)[nH]c12 | -6.99
CSCCC(O)C(=O)N(C)Cc1cnn(-c2ccc(F)cc2)c1 (stereo not given) | -3.28
CCN1CCC(CC(=O)N2CCN(c3ccccc3OC)CC2C)CC1 (stereo not given) | 23.7
Cc1c(Cn2c(=O)cnc3ccccc32)cnn1C | -14.9
Cc1cnc(Cn2cc(-c3cccc(C(C)N(C)C)c3)nn2)cn1 (stereo not given) | -4.71
COc1cccc(OCC2CCCN(C(=O)Cc3cccc(O)c3)C2)c1 (stereo not given) | -11.3
O=C(NCCC1COc2ccccc2O1)c1ccc(N2CC(O)C2)nc1 (stereo not given) | -6.19
O=C(c1cnc2ccccn12)N1CCCC(c2ccn[nH]2)C1 (stereo not given) | -11.2
CC(c1ccccn1)N(C)Cc1cccc(C(=O)Nc2nccn2C)c1 (stereo not given) | 8.36
CN(Cc1ncc[nH]1)c1nc(-c2ccccn2)nc2c1CCNCC2 | -11.9
Cc1ccsc1[C@@H]1CCN(C(=O)CCOc2ccccc2)C[C@H]1O | -8.93

Reference: ChEMBL document CHEMBL3507680, “University of Dundee, Gates Library screen for HepG2 cell viability”
